For test [1], the system named is Candida albicans. Nature of the test: Antifungal activity against Candida albicans MTCC 2827 at 1 mg/ml after 72 hrs by well plate method. It is filed as functional. The conditions noted are these: MTCC 2827, 72 h, read-out: DIZ.
The test system of test [2] is Radical scavenging activity. Nature of the test: Antioxidant activity assessed as DPPH radical scavenging activity after 20 mins by UV-Vis spectrophotometric analysis. It counts as functional. On the technique in general: DPPH is a stable violet radical that fades when it is reduced.
Test [3] can be described thus: Antifungal activity against Chrysosporium keratinophilum MTCC 3017 at 0.5 mg/ml after 72 hrs by well plate method. It counts as functional.
Test [4] concerns Staphylococcus aureus. Nature of the test: Antibacterial activity Staphylococcus aureus ATCC 25923 at 1 mg/ml after 24 hrs by well plate method. It counts as functional. The conditions noted are these: ATCC 25923, 24 h, read-out: DIZ.
Test [5] concerns Escherichia coli. Nature of the test: Antibacterial activity Escherichia coli ATCC 25922 at 1 mg/ml after 24 hrs by well plate method. It counts as functional. The conditions noted are these: ATCC 25922, 24 h, read-out: DIZ.
Test [6] has as its system Aspergillus flavus. Nature of the test: Antifungal activity against Aspergillus flavus MTCC 3306 at 0.5 mg/ml after 72 hrs by well plate method. It counts as functional. The conditions noted are these: MTCC 3306, 72 h, read-out: DIZ.
For test [7], the system named is Staphylococcus aureus. Nature of the test: Antibacterial activity Staphylococcus aureus ATCC 25923 at 0.5 mg/ml after 24 hrs by well plate method. It is filed as functional. The conditions noted are these: ATCC 25923, 24 h, read-out: DIZ.
For test [8], the system named is Candida albicans. Nature of the test: Antifungal activity against Candida albicans MTCC 2827 at 0.5 mg/ml after 72 hrs by well plate method. It counts as functional. The conditions noted are these: MTCC 2827, 72 h, read-out: DIZ.
Test [9] deals with Escherichia coli. Nature of the test: Antibacterial activity Escherichia coli ATCC 25922 at 0.5 mg/ml after 24 hrs by well plate method. It is filed as functional. The conditions noted are these: ATCC 25922, 24 h, read-out: DIZ.
For test [10], the system named is Aspergillus flavus. Nature of the test: Antifungal activity against Aspergillus flavus MTCC 3306 at 1 mg/ml after 72 hrs by well plate method. The conditions noted are these: MTCC 3306, 72 h, read-out: DIZ. It is filed as functional.
A short description of test [11]: Antifungal activity against Chrysosporium keratinophilum MTCC 3017 at 1 mg/ml after 72 hrs by well plate method. It counts as functional.
Test [12] concerns Pseudomonas aeruginosa. Nature of the test: Antibacterial activity Pseudomonas aeruginosa ATCC 27853 at 0.5 mg/ml after 24 hrs by well plate method. It counts as functional. The conditions noted are these: ATCC 27853, 24 h, read-out: DIZ.
The subject of a further test is Liver microsomes. Nature of the test: Antioxidant activity in Wistar rat liver microsomes assessed as inhibition of microsomal lipid peroxidation after 15 mins by MDA-TBA assay. It counts as functional, Microsome. In general terms: Liver microsomes are vesicles of endoplasmic reticulum, rich in cytochrome P450 enzymes.
Test [13] concerns Pseudomonas aeruginosa. Nature of the test: Antibacterial activity Pseudomonas aeruginosa ATCC 27853 at 1 mg/ml after 24 hrs by well plate method. The conditions noted are these: ATCC 27853, 24 h, read-out: DIZ. It counts as functional.

Molecules are shown by their SMILES.

Drawing on ChEMBL document CHEMBL2062499, “Synthesis of benzofuran based 1,3,5-substituted pyrazole derivatives: as a new class of potent antioxidants and antimicrobials--a novel accost to amend biocompatibility” (Bioorg Med Chem Lett, 2012), this text covers zone of inhibition, IC50 and inhibition zone (IZ) for four compounds.

In the case of `COc1cc(C2CC(c3cc4ccccc4o3)=NN2C(=O)Nc2ccccc2O)ccc1O` (stereo unspecified), the zone of inhibition at 1000 µg/mL in the test on Candida albicans [1] worked out at 4 mm; in the test with Staphylococcus aureus [4] it was 2 mm; in the test on Escherichia coli [5] it was 3 mm; with Aspergillus flavus [10], 2 mm; in the test on Pseudomonas aeruginosa [13], 4 mm. In addition, the IC50 in test [2] is listed as 19 uM/ml; in the test on Liver microsomes, 22 uM/ml. The inhibition zone (IZ) is 2 mm in [3] and 4 mm in test [11]. Also, the zone of inhibition at 500 µg/mL came out at 1 mm in the test with Aspergillus flavus [6]; 1 mm with Staphylococcus aureus [7]; 3 mm in the test with Candida albicans [8]; 1 mm with Escherichia coli [9]; 2 mm in the test with Pseudomonas aeruginosa [12].
On to `COc1cc(C2CC(c3cc4ccccc4o3)=NN2)ccc1O` (stereo unspecified), for which the zone of inhibition at 1000 µg/mL with Candida albicans [1] stood at 1 mm; in the test with Staphylococcus aureus [4], 0 mm; with Escherichia coli [5], 0 mm; in the test on Aspergillus flavus [10], 0 mm; with Pseudomonas aeruginosa [13] it was 0 mm. Besides, the IC50 in test [2] worked out at 100 uM/ml; with Liver microsomes it was 112 uM/ml. The figures for the inhibition zone (IZ) in [3] and in test [11] were 0 mm and 1 mm, respectively. Also, the zone of inhibition at 500 µg/mL with Aspergillus flavus [6] was 0 mm; in the test with Staphylococcus aureus [7], 0 mm; in the test on Candida albicans [8], 1 mm; in the test on Escherichia coli [9] it was 0 mm; with Pseudomonas aeruginosa [12], 0 mm.
On to `COc1cc(C2CC(c3cc4ccccc4o3)=NN2C(=O)Nc2cccc(O)c2)ccc1O` (stereo unspecified), for which the zone of inhibition at 1000 µg/mL was 3 mm with Candida albicans [1]; 2 mm with Staphylococcus aureus [4]; 3 mm with Escherichia coli [5]; 2 mm in the test on Aspergillus flavus [10]; 3 mm in the test with Pseudomonas aeruginosa [13]. Moreover, the IC50 in test [2] is listed as 21 uM/ml; with Liver microsomes, 24 uM/ml. For the same compound, the inhibition zone (IZ) amounted to 1 mm in test [3] and 2 mm in test [11]. For the same compound, the zone of inhibition at 500 µg/mL worked out at 1 mm in the test on Aspergillus flavus [6]; 1 mm in the test on Staphylococcus aureus [7]; 1 mm with Candida albicans [8]; 1 mm with Escherichia coli [9]; 2 mm with Pseudomonas aeruginosa [12].
Take `COc1cc(C2CC(c3cc4ccccc4o3)=NN2C(=O)Nc2ccc(Br)cc2)ccc1O` (stereo unspecified): the zone of inhibition at 1000 µg/mL is 19 mm in the test with Candida albicans [1]; 8 mm with Staphylococcus aureus [4]; 16 mm in the test on Escherichia coli [5]; 6 mm with Aspergillus flavus [10]; 10 mm in the test on Pseudomonas aeruginosa [13]. In addition, the IC50 in test [2] came out at 105 uM/ml; in the test on Liver microsomes it was 115 uM/ml. The inhibition zone (IZ) was determined as 9 mm in [3] and 10 mm in test [11]. Moreover, the zone of inhibition at 500 µg/mL with Aspergillus flavus [6] worked out at 4 mm; in the test with Staphylococcus aureus [7], 6 mm; in the test on Candida albicans [8], 15 mm; with Escherichia coli [9], 10 mm; in the test on Pseudomonas aeruginosa [12], 7 mm.
